Test [1] relates to Murine macrophage lines (RAW264.7, J774.A1 or RAW264NO-). The test is described as follows: Phagocytosis assay in vitro (uptake of Alexa Fluor 488-labeled particles). It counts as cell-based. Also noted: effect of LR-disrupting drugs on HSP70-mediated phagocytosis: dose or concentration left out as unconfirmed. Particulars: for uptake of labeled S. cerevisiae as compared to treatment with HSP70 (specificity controls): equimolar to HSP70 100 μg/ml, BSA 100 μg/ml, concavalin A 6 μg/ml, adjuvants 10 μl/well, ADP, ATP 3 mM. The protocol:
Phagocytosis Assay in vitro. RAW 264.7, RAW264.7 (NO-) and J774A.1 cells were cultured in DMEM or RPMI (RAW NO-) with 10% FCS, harvested, and washed. 3×10^5 cells/well were incubated in serum-free Earle's minimal essential medium (EMEM) in a 24-well plate for 1 hour at 37° C. Alexa Fluor® 488-labeled particles (inert polystyrene microspheres; or yeast, Saccharomyces cerevisiae or Gram-negative bacteria, Escherichia coli, 40 particles/macrophage) were added and co-incubated in a dark environment for 60 minutes in serum free EMEM with or without HSPs, LPS, or control proteins. At the end of 60 minutes incubation, the plate was covered in a dark container on ice. Specific measures were taken to exclude the fluorescence that resulted from particles that were outside of the cell or sticking to the surface of the cell. […] Specifically, trypan blue (0.8 mg/ml) was added for 60 seconds and plates were analyzed immediately using FluorImager SI (Molecular Dynamics/Amersham). Since the emission of Alexa Fluor® 488, about 519 nm at an excitation of about 490 nm, falls within the absorbance range of trypan blue (475-675 nm), the fluorescence of the sample only represents the intracellular fluorescence. External or surface-bound fluorescence is quenched. Using Student's t test, the results were analyzed and P-values were calculated.
HSP-mediated phagocytosis was quantified by measuring the internalized fluorescence measured by FluorImager SI and Relative Mean Fluorescence Intensity (RMFI) was compared between the treatment groups (as indicated). All the treatment groups were compared to medium alone using the Student's t test and significance denoted by P<0.01. The error bar represents one standard deviation. The results shown are a cumulative analysis of 3 experiments, 3 wells/group.

Test [2] relates to full thickness surgical wounds on the dorsum of BALB/cJ mice. As to the kind of experiment: Closure of full thickness surgical wounds, percent wound closure. Particulars: day 2 post surgery; for wound healing on day 2: 30 μg/dose. It counts as in vivo. The protocol:
Surgery and Treatment. Mice were anesthetized using Ketamine (2.0 mg/mouse) and Xylazine (0.1 mg/mouse) were administered intraperitoneally (IP) and the dorsal skin was shaved. After sterile prepping of the area, a full thickness circular wound, 8 mm diameter, was made on the dorsal skin using a disposable biopsy punch (Miltex Inc, York, Pa.) on the midline of the dorsum approximately at the iliac crest. The mice were then randomly assigned into the treatment groups. Initial wound measurements were performed while the mice were still anesthetized. Mice were then treated on days 0, 2, 4, and 6 unless otherwise specified. All agents used as treatment were diluted in 0.5 ml of PBS and injected using a 25-gauge needle in the subcutaneous space in the nape of the neck. The surgical procedures, post-operative monitoring, and safety concerns were approved by the Institutional Animal Care and Usage Committee.
Measurements and Analysis. Wound healing of open wounds is a complex process with many parameters to consider. […] The wound surface area was determined by measuring the craniocaudal and lateromedial distances using vernier calipers in perpendicular axis on days 0, 2, 4, 6, 9, and 11 postoperatively unless noted. Changes in wound area were expressed as percent wound closure. Wound closure data was plotted as average percent wound closure ±SEM unless otherwise noted. All calculations and data analysis were performed using Microsoft Excel and Sigma Plot. Sigma Plot was used to perform Student's t-tests for reported P values.
Full thickness surgical wounds were created on the dorsum of BALB/cJ mice as described in Methods. Wounds were made on day 0. Subsequently, the wounds were treated with exogenous injections of HSP70, HSP90, gp96 (30 μg/dose) or buffer administered subcutaneously (SC) on days 0, 2, 4 and 6 following surgery (FIG. 6A). The wounds were measured on days 0, 2, 4, 6, 9, 11 unless otherwise noted. Wounds were measured serially, percent wound closure was calculated and plotted against time in order to quantitate the rate of healing by secondary intention. […] Data is plotted as average percent wound closure ±SEM on days indicated. Two mice from each treatment group (PBS (n=12), HSP70 (n=11), HSP90 (n=12), and gp96 (n=11)) were sacrificed for histology on days 2, 4, and 6 post-surgery (data not shown). The P values obtain using the Student's t-test.
Results are of average percent wound closure ±SEM on day 2 post surgery. The *P values were obtained using the Student's t-test by comparing HSP treatment to all of the non-HSP control treatments. The least significant P value was reported. […] Doses higher than 50 μg/dose were not tested.

In test [3] the test system is CD4+ T cells purified from spleens of DO 11.10 mice. The test is described as follows: Proliferation of CD4+ T cells after MHC-II presentation of OVA-coated yeast by macrophages (FACS). It is filed as cell-based. Particulars: cytochalasin-D treatment. On the procedure: Proliferation of CD4+ T cells and INF-γ (interferon gamma) release. Unlabeled S. cerevisiae (80 μg) was incubated with excess chicken ovary albumin (OVA) at 37° C. for 1 hour and washed repeatedly to eliminate free OVA protein. S. cerevisiae-OVA complexes (OVA-coated yeast) were administered to macrophages treated with or without HSP70. Macrophages were then washed and irradiated at 12,000 rads and assessed for viability by trypan blue exclusion. Subsequently, they were co-cultured with CD4+ T lymphocytes that were purified from spleens of DO 11.10 mice and labeled with carboxyfluoroscein succinimidyl ester (CSFE). […] Following the 48-hour incubation, proliferation of CD4+ cells was determined with FACS and IFN-γ release in the supernatant was tested by enzyme-linked immunosorbent assay (ELISA; Pierce, Ill.).
Alexafluor labeled S. cerevisiae were coated with whole ovalbumin (OVA) protein 1 mg/ml by co-incubation at 37° C. for 20 minutes and washed until free OVA protein was removed (washes were tested by gel electrophoresis using SDS-PAGE and immunoblotting). […] Resultant proliferation of the CSFE-labeled CD4+ was measured by FACS as an indirect measure of the amount of OVA protein processed and its peptide epitope presented in context of MHC-II. […]

For the molecule beta galactosidase, the “uptake of labeled S. cerevisiae as compared to treatment with HSP70 (specificity controls)” value in test [1] is reported as “None of control proteins used enhanced uptake”. Still for that read-out and setting: the value for concavalin A was “None of control proteins used enhanced uptake”. As for bovine serum albumin [BSA], the “uptake of labeled S. cerevisiae as compared to treatment with HSP70 (specificity controls)” value in test [1] is given as “None of control proteins used enhanced uptake”.

`C[C@@H]1[C@H](O)[C@@H](C)/C=C/C=C/CC/C=C/C=C/C=C/C=C/C(O[C@H]2O[C@H](C)[C@@H](O)[C@H](N)[C@@H]2O)CC2O[C@](O)(CC(O)C(O)CCC(O)CC(O)CC(O)CC(=O)O[C@H]1C)CC(O)C2C(=O)O` (some centres unmarked) [nystatin]: the “effect of LR-disrupting drugs on HSP70-mediated phagocytosis” value in test [1] (nystatin or MCD, labeled yeast 40 particles/macrophage) is listed as “HSP70-mediated phagocytosis was inhibited”.

Turning to `O=c1[nH]c(=O)c2[nH]c(=O)[nH]c2[nH]1` [uric acid, reference compound], in test [2], the “wound healing on day 2” value is given as 13% and the “wound closure of non-HSP controls compared to PBS control” value is “not significantly different to the PBS control”.

`C=CCn1c(=O)n([C@@H]2O[C@H](CO)[C@@H](O)[C@H]2O)c2nc(N)[nH]c(=O)c21` [LRB, Loxoribine]: the “dose dependence of inhibitory effect on HSP70-mediated phagocytosis” value in test [1] (LRB 0-330 μM, HSP70 100 μg/ml) is recorded as “titratable by dose”. For `Nc1ncnc2c1ncn2[C@@H]1O[C@H](COP(=O)(O)OP(=O)(O)O)[C@@H](O)[C@H]1O` [ADP, adenosine diphosphate], the “uptake of labeled S. cerevisiae as compared to treatment with HSP70 (specificity controls)” value in test [1] is on record as “ineffective”. For `C=C1[C@@H](C)[C@H]2[C@H](Cc3ccccc3)NC(=O)[C@]23[C@H](OC(C)=O)/C=C/[C@@](C)(O)C(=O)[C@@H](C)C/C=C/[C@H]3[C@@H]1O` [cytochalasin-D, reference compound], the “effect on CD4+ proliferation caused by HSP70-treatment” value in test [3] is reported as “abrogated the proliferation caused by HSP70-treatment”. The “effect on HSP70-mediated internalization (actin polymerization inhibited)” value in test [1] (cytochalasin-D 4 μM with HSP70) is listed as “showed inhibition of the effects of HSP70”. Turning to `Nc1ncnc2c1ncn2[C@@H]1O[C@H](COP(=O)(O)OP(=O)(O)OP(=O)(O)O)[C@@H](O)[C@H]1O` [ATP, adenosine triphosphate], in test [1], the “uptake of labeled S. cerevisiae as compared to treatment with HSP70 (specificity controls)” value is listed as “ineffective”.

B1: phosphorylase B (protein, UniProt P00489 2-843, looked up)
Glycogen phosphorylase, …: SRPLSDQEKRKQISVRGLAGVENVTELKKNFNRHLHFTLVKDRNVATPRDYYFALAHTVRDHLVGRWIRTQQHYYEKDPKRIYYLSLEFYMGRTLQNTMVNLALENACDEATYQLGLDMEELEEIEEDAGLGNGGLGRLAACFLDSMATLGLAAYGYGIRYEFGIFNQKICGGWQMEEADDWLRYGNPWEKARPEFTLPVHFYGRVEHTSQGAKWVDTQVVLAMPYDTPVPGYRNNVVNTMRLWSAKAPNDFNLKDFNVGGYIQAVLDRNLAENISRVLYPNDNFFEGKELRLKQEYFVVAATLQDIIRRFKSSKFGCRDPVRTNFDAFPDKVAIQLNDTHPSLAIPELMRVLVDLERLDWDKAWEVTVKTCAYTNHTVLPEALERWPVHLLETLLPRHLQIIYEINQRFLNRVAAAFPGDVDRLRRMSLVEEGAVKRINMAHLCIAGSHAVNGVARIHSEILKKTIFKDFYELEPHKFQNKTNGITPRRWLVLCNPGLAEIIAERIGEEYISDLDQLRKLLSYVDDEAFIRDVAKVKQENKLKFAAYLEREYKVHINPNSLFDVQVKRIHEYKRQLLNCLHVITLYNRIKKEPNKFVVPRTVMIGGKAAPGYHMAKMIIKLITAIGDVVNHDPVVGDRLRVIFLENYRVSLAEKVIPAADLSEQISTAGTEASGTGNMKFMLNGALTIGTMDGANVEMAEEAGEENFFIFGMRVEDVDRLDQRGYNAQEYYDRIPELRQIIEQLSSGFFSPKQPDLFKDIVNMLMHHDRFKVFADYEEYVKCQERVSALYKNPREWTRMVIRNIATSGKFSSDRTIAQYAREIWGVEPSRQRLPAPDEKIP
notes: control protein of molecular weight corresponding to the HSPs
As to B1, in test [2], the “wound healing on day 2” value is given as 19% and the “wound closure of non-HSP controls compared to PBS control” value was “not significantly different to the PBS control”. The “uptake of labeled S. cerevisiae as compared to treatment with HSP70 (specificity controls)” value in test [1] is reported as “None of control proteins used enhanced uptake”.

(Values after patent publication US20070098735A1, “Methods for the Elimination of Pathogens and Other Particulate Agents” (priority 2005, published 2007).)
